From publication PMC9500805, “Cytotoxic Assessment of 3,3-Dichloro-β-Lactams Prepared through Microwave-Assisted Benzylic C-H Activation from Benzyl-Tethered Trichloroacetamides Catalyzed by RuCl2(PPh3)3” (Molecules, 2022)
≈ marks a conversion by molar mass, not a printed value.

Columns and labels:
[1] = Hemolysis assay with human erythrocytes; assay type: cell-based; conditions: human erythrocyte suspension, PBS pH 7.4, mean ± SD; for hemolysis at 10 µg/mL: compound at 10 µg/mL; for hemolysis at 80 µg/mL: compound at 80 µg/mL
Protocol: Human blood samples were obtained from the Banc de Sang i Teixits de Barcelona (Spain) from the Catalan Department of Health. Blood was deposited in tubes with the anticoagulant EDTA-K3. Blood samples were centrifuged at 3000 rpm at 4 °C for 10 min (Megafuge 2.0 R. Heraeus Instruments, Hanau, Germany) to induce sedimentation. Plasma was extracted with a Pasteur pipette. Next, the residual pellet was washed with PBS at pH 7.4. This procedure was repeated three times to remove residual leukocytes and platelets and to concentrate the erythrocytes. Following the last wash, the erythrocyte suspension was diluted (1:1) in PBS at pH 7.4 to obtain a suitable erythrocyte suspension (cell density of 8 × 10^9 cell/mL).
The hemolysis assay determined the capability of the different compounds to induce hemolysis of the erythrocyte membrane. Stock solutions of each compound at 1 mg/mL in PBS at pH 7.4 were prepared. Different volumes (10–80 µL) were placed in polystyrene tubes, and an aliquot of 25 µL of the erythrocyte suspensions was added to each tube. The final volume was 1 mL. The tubes were incubated at room temperature under rotatory conditions. Next, the tubes were centrifuged at 10,000 rpm for 5 min. The supernatants’ absorbance at 540 nm (Shimadzu UV-160A, Shimadzu, Duisburg, Germany) was compared with that of the control samples hemolyzed with distilled water (positive control). The negative control was obtained by incubating an aliquot of 25 µL of the erythrocyte suspension with PBS at pH 7.4.
The degree of hemolysis was determined with the following equation:Hemolysis (%) = 100 × (Abs − Ab0)/(Abs100 − Abs0) where Abs, Abs0 and Abs100 are the absorbance of test samples, of the suspension treated with isotonic physiological buffer saline (PBS) and of the suspension of complete hemolysis treated with distilled water, respectively.

HaCaT cells [2] = experiment: Cell viability, MTT assay, HaCaT; assay type: cell-based; conditions: Homo sapiens, 24 h, MTT endpoint, 10–250 µg/mL tested
Protocol: (§1) The immortal human keratinocyte (HaCaT) and the squamous cell carcinoma (A431) cell lines were obtained from Celltec UB. Cells were grown in DMEM medium (4.5 g/L glucose) supplemented with 10% (v/v) FBS, 2 mM L-glutamine, 100 U/mL penicillin and 100 µg/mL streptomycin at 37 °C, 5% CO2. Cells were routinely cultured in 75 cm^2 culture flasks and were trypsinized using trypsin–EDTA when the cells reached approximately 80% confluence. The trypan blue assay, which allows a direct identification and enumeration of live (unstained) and dead (blue) cells in a given population, was used to evaluate the viability of the cells in the cell suspension obtained.
(§2) HaCaT cells (1 × 10^5 cells/mL) and A431 cells (5 × 10^4 cells/mL) were grown at the defined densities in the 60 central wells of a 96-well plate. Cells were incubated for 24 h in 5% CO2 at 37 °C. Then, the spent medium was removed, and cells were incubated for 24 h with the corresponding compound solutions (1 mg/mL) previously diluted in the minimum amount of DMF (dimethylformamide) and then in DMEM medium supplemented with 5% FBS (100 µL) at the required concentration range (10–250 µg/mL). The viability of the cells upon incubation with the β-lactam derivatives was assayed using 2 different endpoints: NRU and MTT.
(§3) Only living cells can reduce the yellow tetrazolium salt 3-(4,5-dimethyl-2-thiazolyl)-2,5-diphenyltetrazolium bromide (MTT) to insoluble purple formazan crystals. After 24 h of incubation of the cells with the corresponding NPs, the medium was removed, and 100 µL of MTT (Sigma-Aldrich, St. Louis, United States) in PBS (5 mg/mL) diluted 1:10 in culture medium without phenol red and without FBS (Lonza, Verviers, Belgium) was added to the cells. After 3 h of incubation, the medium was removed. Thereafter, 100 µL of DMSO (Sigma-Aldrich, St. Louis, MO, USA) was added to each well to dissolve the purple formazan crystals. Agitation and determination of the absorbance of the extracted solution were performed under the same conditions, as described in Section 3.4.1. Finally, the effect of each treatment was calculated as the percentage of tetrazolium salt reduction by viable cells relative to the control cells (cells without any treatment).
(§4) The corresponding half-maximal inhibitory concentration (IC50) values for the different formulations as a function of cell line and endpoint were determined from the fitting of concentration-dependent viability curves.

HaCaT cells [3] = experiment: Cell viability, NRU assay, HaCaT; assay type: cell-based, human; conditions: 24 h, NRU endpoint, 10–250 µg/mL tested; for IC50: Homo sapiens
Protocol: as §1, §2
(§5) The neutral red uptake (NRU) assay is based on the accumulation of the dye in the lysosomes of viable cells. After the cells were incubated for 24 h with the corresponding systems, the medium was removed, and the solutions were incubated with the NR dye (Sigma-Aldrich, St. Louis, MO, USA) solution (50 µg/mL) dissolved in the medium without FBS and without phenol red (Lonza, Verviers, Belgium) for 3 h. Cells were then washed with sterile PBS, followed by the addition of 100 µL of a solution containing 50% absolute ethanol and 1% acetic acid in distilled water to extract the dye. To promote total dissolution of the dye, plates were placed in a microtiter-plate shaker for 5 min at room temperature. The absorbance of the resulting solutions was measured at 550 nm (Bio-Rad 550 microplate reader, Bio-Rad California, Hercules, CA, USA). Finally, the effect of each treatment was calculated as the percentage of dye uptake by viable cells relative to the control cells (cells without any treatment).
as §4

A431 cells [4] = experiment: Cell viability, MTT assay, A431; assay type: cell-based, human; conditions: for IC50: Homo sapiens, A-431, 24 h, A431, 24 h, MTT endpoint, 10–250 µg/mL tested; for SI MTT: SI = IC50 HaCaT / IC50 A431, MTT endpoint
Protocol: as §1, §2, §3, §4
(§6) The corresponding selectivity indexes toward tumoral cells were calculated as the following ratio:SI = IC50 (non-tumoral cell line)/IC50 (tumoral cell line) where HaCaT keratinocytes were used as close representatives of a skin model cell line under non-tumoral conditions.

A431 cells [5] = experiment: Cell viability, NRU assay, A431; assay type: cell-based, human; conditions: for IC50: Homo sapiens, A-431, 24 h, A431, 24 h, NRU endpoint, 10–250 µg/mL tested; for SI NRU: SI = IC50 HaCaT / IC50 A431, NRU endpoint
Protocol: as §1, §2, §5, §4, §6

HaCaT cells [6] = experiment: Cell viability, HaCaT, MTT and NRU endpoints taken together; assay type: cell-based; conditions: Homo sapiens, 24 h, span over or independent of endpoint method
Protocol: as §1, §2
as §5, with “Cells were then washed with sterile PBS, followed by the addition of 100 µL of a solution containing 50% absolute ethanol and 1% acetic acid in distilled water to extract the dye. To promote total dissolution of the dye, plates were placed in a microtiter-plate shaker for 5 min at room temperature.” left out
Only living cells can reduce the yellow tetrazolium salt 3-(4,5-dimethyl-2-thiazolyl)-2,5-diphenyltetrazolium bromide (MTT) to insoluble purple formazan crystals. […] Agitation and determination of the absorbance of the extracted solution were performed under the same conditions, as described in Section 3.4.1. Finally, the effect of each treatment was calculated as the percentage of tetrazolium salt reduction by viable cells relative to the control cells (cells without any treatment).
as §4

A431 cells [7] = experiment: Cell viability, A431, MTT and NRU endpoints taken together; assay type: cell-based; conditions: Homo sapiens, A-431; A431, 24 h, span over or independent of endpoint method
Protocol: as §1, §2, §5, §3, §4

[8] = Cell viability-screening assays (MTT and NRU), both cell lines; assay type: cell-based, human; conditions: human, HaCaT keratinocytes and A431 squamous cell carcinoma cells; HaCaT and A431, MTT and NRU, 24 h, 10–250 µg/mL; as a function of cell type and endpoint method; read-out: percentage viability compared to control cells
Protocol: as §1, §2, §5, §3

HaCaT and A431 cells = experiment: as above; assay type: cell-based, human; conditions: regardless of the concentration range
Protocol: as §1, §2, §5, §3

[9] = tested on: human MCF-7 breast cancer cells; parameters: method as in PMID 21397510; conditions: cited from earlier work
[10] = human, pH 7.4, human RBC suspension

Compound	hemolysis at 10 µg/mL ([1]; human RBC suspension) [%]	hemolysis at 80 µg/mL ([1]; human RBC suspension) [%]	IC50 (HaCaT cells [2]) [µg/mL]	IC50 (HaCaT cells [3]) [µg/mL]	IC50 (A431 cells [4]) [µg/mL]	SI MTT (A431 cells [4])	IC50 (A431 cells [5]) [µg/mL]	SI NRU (A431 cells [5])	IC50 (HaCaT cells [6]) [µg/mL]	IC50 (A431 cells [7]) [µg/mL]	viability at 24 h [8] [%]	hemolysis at 10 µg/mL [1, 10] [%]	hemolysis at 80 µg/mL [1, 10] [%]	selectivity against the cell type (HaCaT vs A431 cytotoxicity) (HaCaT and A431 cells)	IC50 HaCaT NRU (HaCaT cells [3]) [µg/mL]	IC50 [9] [nM]
CC(C)(C)N1C(=O)C(Cl)(Cl)C1c1ccccc1 (centres unmarked) [2b]	0.01 ± 0.01	2.5 ± 0.97	19.8 (≈ 72.8 µM)	48.3 (≈ 177 µM)	46.9 (≈ 172 µM)	0.42	29.5 (≈ 109 µM)	1.63	20 to 49 (≈ 73.5 to 180 µM)	30 to 47 (≈ 110 to 173 µM)	< 20					
Cc1ccccc1C1N(C(C)(C)C)C(=O)C1(Cl)Cl (centres unmarked) [2c]			~250 (≈ 874 µM)	> 250	~250 (≈ 874 µM)	1.0	> 250	>1.0			≤ 50	0.01 ± 0.01	0.01 ± 0.01			
Cc1ccc(C2N(C(C)(C)C)C(=O)C2(Cl)Cl)cc1 (centres unmarked) [2e]			92.6 (≈ 324 µM)	78.8 (≈ 275 µM)	180 (≈ 629 µM)	0.51	121 (≈ 422 µM)	0.65	78 to 93 (≈ 273 to 325 µM)	120 to 180 (≈ 419 to 629 µM)	< 20	0.01 ± 0.01	0.2 ± 0.23	higher cytotoxicity in HaCaT cells than in A431 cells		
CC(C)(C)N1C(=O)C(Cl)(Cl)C1c1cc(F)cc(F)c1 (centres unmarked) [2h]			> 250	> 250	250 (≈ 811 µM)	>1.0	250 (≈ 811 µM)	>1.0	> 250	~250 (≈ 811 µM)	≤ 50	0.05 ± 0.05	0.12 ± 0.09	the opposite results		
CC(C)N1C(=O)C(Cl)(Cl)C1c1ccccc1 (centres unmarked) [2j]			42.1 (≈ 163 µM)	40.1 (≈ 155 µM)	76.2 (≈ 295 µM)	0.55	37.9 (≈ 147 µM)	1.06	40 to 42 (≈ 155 to 163 µM)	38 to 76 (≈ 147 to 294 µM)	< 20	0.01 ± 0.01	0.02 ± 0.02			
O=C1N(C2CCCCC2)C(c2ccccc2)C1(Cl)Cl (centres unmarked) [2k]			> 250	~220 (≈ 738 µM)	250 (≈ 838 µM)	>1.0	220 (≈ 738 µM)	>1.13		> 250	< 20	~0.25	0.3 ± 0.21		>250	
COc1ccc([C@@H]2[C@@H](c3ccsc3)C(=O)N2c2cc(OC)c(OC)c(OC)c2)cc1O [II]																10
COc1ccc([C@@H]2[C@@H](c3cccs3)C(=O)N2c2cc(OC)c(OC)c(OC)c2)cc1O [I]																7
